Article PMC6613200 (International Journal of Nanomedicine, 2019)

Tests used:
[1] = SPR binding of peptide aptamer to Au/Cys/carboxyl-GO chip; conditions: carboxyl-GO with peptide aptamer, 1:1 Langmuir model
HSA = test: SPR selectivity, peptide vs interfering HSA; assay type: binding, human; conditions: mixture containing 20 nM BSA and 20 nM HSA with hCG; 100 μM peptide
BSA = test: SPR selectivity, peptide vs interfering BSA; assay type: binding, bovine; conditions: mixture containing 20 nM BSA and 20 nM HSA with hCG; 100 μM peptide

Q: For (N-)PPLRINRHILTR(-C) [peptide aptamer], which KA ([1]; flow rate 30 µL/min) is on record?
A: The KA was 2.81e+07 M⁻¹.

Q: And the “KD (kd/ka)” value ([1]; flow rate 30 µL/min)?
A: The value was 0.36×10^–7 M.

Q: What about the association rate ka ([1]; flow rate 30 µL/min) of the same substance?
A: The association rate ka was 32.57 ×10[4] M^−1 s^−1.

Q: And the association rate ka ([1]; flow rate 60 µL/min)?
A: The association rate ka was 13.75 ×10[4] M^−1 s^−1.

Q: And the association rate ka ([1]; flow rate 90 µL/min)?
A: Its association rate ka is 7.89 ×10[4] M^−1 s^−1.

Q: And the “interaction of peptide with interfering protein” value (HSA)?
A: Its value is “no significant interaction between the two proteins and the peptide”.

Q: What about the “interaction of peptide with interfering protein” value (BSA) of the same substance?
A: Its value is “no significant interaction between the two proteins and the peptide”.
